pIC50: −log10 of the molar value.
How the values were obtained:
[1] = Plasma protein binding in human assessed as unbound fraction; format: ADME, cell-free
MOLM-13 = assay: Antiproliferative activity against human MOLM-13 cells; format: functional, cell-based
[2] = Metabolic stability in human liver microsomes assessed as half life; format: ADME, Microsome
[3] = Metabolic stability in mouse liver microsomes assessed as half life; format: ADME, Microsome
[4] = Oral bioavailability in C57 mouse at 10 mg/kg; format: ADME, organism-based; details: in vivo
[5] = Clearance in C57 mouse at 10 mg/kg, po or 2 mg/kg, iv; format: ADME, organism-based; details: in vivo
[6] = Volume of distribution at steady state in C57 mouse at 10 mg/kg, po or 2 mg/kg, iv; format: ADME, organism-based; details: in vivo, read-out: Vdss
[7] = Plasma protein binding in mouse assessed as unbound fraction; format: ADME, cell-free
[8] = target: Dihydroorotate dehydrogenase (quinone), mitochondrial (Homo sapiens, UniProt Q02127); assay: Inhibition of human DHODH
Chain of Dihydroorotate dehydrogenase (quinone), mitochondrial (Q02127 whole entry): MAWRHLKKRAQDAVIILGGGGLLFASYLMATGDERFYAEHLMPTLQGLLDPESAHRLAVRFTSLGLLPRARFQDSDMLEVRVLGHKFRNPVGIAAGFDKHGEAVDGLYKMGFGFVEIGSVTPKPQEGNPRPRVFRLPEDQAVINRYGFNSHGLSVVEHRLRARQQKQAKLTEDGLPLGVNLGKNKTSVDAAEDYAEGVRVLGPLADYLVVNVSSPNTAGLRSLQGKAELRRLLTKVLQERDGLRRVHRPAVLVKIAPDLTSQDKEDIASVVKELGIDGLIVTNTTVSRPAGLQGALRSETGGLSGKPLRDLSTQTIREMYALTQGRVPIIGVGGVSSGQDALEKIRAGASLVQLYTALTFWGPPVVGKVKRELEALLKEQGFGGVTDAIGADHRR

[9] = Half life in C57 mouse at 10 mg/kg, po or 2 mg/kg, iv; format: ADME, organism-based; details: in vivo

SMILES	half-life [2] [h]	half-life [3] [h]	pIC50 [8]	pIC50 (MOLM-13; Homo sapiens, MOLM-13)	also measured
Cc1c(-c2ccc(-c3ccccc3F)cc2)nc2ccc(F)cc2c1C(=O)O [BREQUINAR]	> 3	> 3	–	–	Fu [1]: 0.39%; pIC50 (MOLM-13; molm-13): 7.22; bioavailability [4]: 72%; clearance [5]: 0.2 mL/min/kg; Vd [6]: 0.3 L/kg; Fu [7]: 0.73%
COC(=O)NC(=O)c1c(C)c(-c2ccc(-c3ccccc3F)cc2)nc2ccc(F)cc12	–	–	5.90	6.39	–
Cc1c(-c2ccc(-c3ccccc3F)cc2)nc2ccc(F)cc2c1CO	–	–	6.78	6.15	–
Cc1c(-c2ccc(-c3ccccc3F)cc2)nc2ccc(F)cc2c1-c1noc(=O)[nH]1	–	–	5.81	< 5.52	–
CCONC(=O)c1c(C)c(-c2ccc(-c3ccccc3F)cc2)nc2ccc(F)cc12	> 3	0.3	8.38	7.48	–
Cc1c(-c2ccc(-c3ccccc3F)cc2)nc2ccc(F)cc2c1C(O)C(F)(F)F (stereo not given)	–	–	6.09	6.19	–
Cc1c(-c2ccc(-c3ccccc3F)cc2)nc2ccc(F)cc2c1C(=O)C(F)(F)F	–	–	7.13	< 5.52	–
Cc1c(-c2ccc(-c3ccccc3F)cc2)nc2ccc(F)cc2c1C(=O)NS(C)(=O)=O	–	–	7.49	6.52	–
Cc1c(-c2ccc(-c3ccccc3F)cc2)nc2ccc(F)cc2c1C(N)=O	2.25	1.08	7.33	6.89	–

The next lines start with results.

half-life [2] [h]	half-life [3] [h]	pIC50 [8]	pIC50 (MOLM-13; Homo sapiens, MOLM-13)	SMILES	also measured
–	–	6.80	< 5.52	Cc1c(-c2ccc(-c3ccccc3F)cc2)nc2ccc(F)cc2c1C(F)F	–
> 3	0.6	8.85	7.64	Cc1c(-c2ccc(-c3ccccc3F)cc2)nc2ccc(F)cc2c1C(=O)NO	–
–	–	8.11	5.29	Cc1c(-c2ccc(-c3ccccc3F)cc2)nc2ccc(F)cc2c1C(=O)N(C)O	–
–	–	6.65	< 5.52	Cc1c(-c2ccc(-c3ccccc3F)cc2)nc2ccc(F)cc2c1-c1nnn[nH]1	–
–	–	6.94	< 5.52	Cc1c(-c2ccc(-c3ccccc3F)cc2)nc2ccc(F)cc2c1C(=O)NC#N	–
> 3	0.95	9.92	8.05	CONC(=O)c1c(C)c(-c2ccc(-c3ccccc3F)cc2)nc2ccc(F)cc12	Fu [1]: 0.55%; bioavailability [4]: 108%; half-life [9]: 2.35 h; clearance [5]: 5.09 mL/min/kg; Vd [6]: 1.15 L/kg; Fu [7]: 0.77%

From ChEMBL document CHEMBL4699538 (Bioorg Med Chem Lett, 2020)
